Reference: ChEMBL document CHEMBL5532641, “MNK, mTOR or eIF4E-selecting the best anti-tumor target for blocking translation initiation” (Eur J Med Chem, 2023)

Assays:
EIF4E/EIF4G1 = EIF4E/EIF4G1 (Homo sapiens, UniProt P06730+Q04637); format: protein-complex assay
[1] = target: Eukaryotic initiation factor 4A-I (Homo sapiens, UniProt P60842)
Leukemia cell = experiment: cells; format: functional, cell-based; conditions: Homo sapiens, 72 h
Lymphoma cell line = experiment: cells; format: functional, cell-based; conditions: Homo sapiens, 72 h
in vivo = conditions: mouse, po
A549 = experiment: cells; format: functional, cell-based; conditions: Homo sapiens, A549, 70 min
[2] = target: MAP kinase-interacting serine/threonine-protein kinase 2 (Homo sapiens, UniProt Q9HBH9)
MDA-MB-231 [3] = experiment: animal or person; format: functional, Homo sapiens; conditions: Mus musculus, MDA-MB-231, 696 h, route ip, time 29 day, read-out: TGI
MDA-MB-231 [4] = experiment: animal or person; format: functional, Homo sapiens; conditions: Mus musculus, MDA-MB-231, 696 h, route ip, time 29 day, read-out: TGI; remark: listed apart in the source
MDA-MB-231 [5] = experiment: animal or person; format: functional, Homo sapiens; conditions: Mus musculus, MDA-MB-231, 696 h, route ip, time 29 day, read-out: TGI; remark: listed apart in the source
CWR22R [6] = experiment: animal or person; format: functional, Homo sapiens; conditions: Mus musculus, 22Rv1, 816 h, route ip, time 34 day, read-out: TGI
CWR22R [7] = experiment: animal or person; format: functional, Homo sapiens; conditions: Mus musculus, 22Rv1, 816 h, route ip, time 34 day, read-out: TGI; remark: listed apart in the source
animal or person = format: functional; conditions: Homo sapiens, BR100 cell, 408 h, route ip, time 17 day, read-out: TGI
mTORC1 (Homo sapiens) = mTORC1 (Homo sapiens) (UniProt P42345+Q8N122+Q9BVC4); conditions: dose 500.0 nM
[8] = target: Phosphatidylinositol 4,5-bisphosphate 3-kinase catalytic subunit gamma isoform (Homo sapiens, UniProt P48736)
Chain of Phosphatidylinositol 4,5-bisphosphate 3-kinase catalytic subunit gamma isoform (P48736 whole entry, canonical isoform): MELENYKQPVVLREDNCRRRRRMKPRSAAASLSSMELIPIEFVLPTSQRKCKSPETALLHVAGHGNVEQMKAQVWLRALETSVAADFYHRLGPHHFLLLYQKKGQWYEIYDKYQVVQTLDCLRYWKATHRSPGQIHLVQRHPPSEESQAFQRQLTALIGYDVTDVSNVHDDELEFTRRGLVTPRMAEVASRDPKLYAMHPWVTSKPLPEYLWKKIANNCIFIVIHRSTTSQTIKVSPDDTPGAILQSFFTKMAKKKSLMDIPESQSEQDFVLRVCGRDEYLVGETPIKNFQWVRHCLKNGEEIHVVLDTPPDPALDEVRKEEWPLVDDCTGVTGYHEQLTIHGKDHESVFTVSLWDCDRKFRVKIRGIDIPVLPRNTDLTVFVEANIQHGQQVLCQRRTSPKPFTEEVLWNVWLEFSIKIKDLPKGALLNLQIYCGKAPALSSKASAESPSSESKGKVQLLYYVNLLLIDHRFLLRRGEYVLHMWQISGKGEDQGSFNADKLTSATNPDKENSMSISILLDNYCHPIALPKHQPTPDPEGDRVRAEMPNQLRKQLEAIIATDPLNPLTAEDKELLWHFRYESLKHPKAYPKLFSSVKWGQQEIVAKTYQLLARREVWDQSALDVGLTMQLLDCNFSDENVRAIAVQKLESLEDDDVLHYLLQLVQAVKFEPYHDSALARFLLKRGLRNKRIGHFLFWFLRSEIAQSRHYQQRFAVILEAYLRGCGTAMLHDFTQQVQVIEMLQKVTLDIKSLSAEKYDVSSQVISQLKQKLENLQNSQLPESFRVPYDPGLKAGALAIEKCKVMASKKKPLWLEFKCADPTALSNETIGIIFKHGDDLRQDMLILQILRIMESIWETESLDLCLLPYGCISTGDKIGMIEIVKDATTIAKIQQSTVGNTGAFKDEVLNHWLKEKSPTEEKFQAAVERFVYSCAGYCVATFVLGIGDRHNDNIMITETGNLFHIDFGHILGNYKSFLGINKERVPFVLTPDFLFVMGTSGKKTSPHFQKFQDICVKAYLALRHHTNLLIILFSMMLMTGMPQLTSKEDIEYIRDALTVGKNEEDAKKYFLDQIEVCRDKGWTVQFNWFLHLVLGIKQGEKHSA

Chain of mTORC1 (Homo sapiens) (Q8N122 whole entry, looked up, other chains not shown, canonical isoform): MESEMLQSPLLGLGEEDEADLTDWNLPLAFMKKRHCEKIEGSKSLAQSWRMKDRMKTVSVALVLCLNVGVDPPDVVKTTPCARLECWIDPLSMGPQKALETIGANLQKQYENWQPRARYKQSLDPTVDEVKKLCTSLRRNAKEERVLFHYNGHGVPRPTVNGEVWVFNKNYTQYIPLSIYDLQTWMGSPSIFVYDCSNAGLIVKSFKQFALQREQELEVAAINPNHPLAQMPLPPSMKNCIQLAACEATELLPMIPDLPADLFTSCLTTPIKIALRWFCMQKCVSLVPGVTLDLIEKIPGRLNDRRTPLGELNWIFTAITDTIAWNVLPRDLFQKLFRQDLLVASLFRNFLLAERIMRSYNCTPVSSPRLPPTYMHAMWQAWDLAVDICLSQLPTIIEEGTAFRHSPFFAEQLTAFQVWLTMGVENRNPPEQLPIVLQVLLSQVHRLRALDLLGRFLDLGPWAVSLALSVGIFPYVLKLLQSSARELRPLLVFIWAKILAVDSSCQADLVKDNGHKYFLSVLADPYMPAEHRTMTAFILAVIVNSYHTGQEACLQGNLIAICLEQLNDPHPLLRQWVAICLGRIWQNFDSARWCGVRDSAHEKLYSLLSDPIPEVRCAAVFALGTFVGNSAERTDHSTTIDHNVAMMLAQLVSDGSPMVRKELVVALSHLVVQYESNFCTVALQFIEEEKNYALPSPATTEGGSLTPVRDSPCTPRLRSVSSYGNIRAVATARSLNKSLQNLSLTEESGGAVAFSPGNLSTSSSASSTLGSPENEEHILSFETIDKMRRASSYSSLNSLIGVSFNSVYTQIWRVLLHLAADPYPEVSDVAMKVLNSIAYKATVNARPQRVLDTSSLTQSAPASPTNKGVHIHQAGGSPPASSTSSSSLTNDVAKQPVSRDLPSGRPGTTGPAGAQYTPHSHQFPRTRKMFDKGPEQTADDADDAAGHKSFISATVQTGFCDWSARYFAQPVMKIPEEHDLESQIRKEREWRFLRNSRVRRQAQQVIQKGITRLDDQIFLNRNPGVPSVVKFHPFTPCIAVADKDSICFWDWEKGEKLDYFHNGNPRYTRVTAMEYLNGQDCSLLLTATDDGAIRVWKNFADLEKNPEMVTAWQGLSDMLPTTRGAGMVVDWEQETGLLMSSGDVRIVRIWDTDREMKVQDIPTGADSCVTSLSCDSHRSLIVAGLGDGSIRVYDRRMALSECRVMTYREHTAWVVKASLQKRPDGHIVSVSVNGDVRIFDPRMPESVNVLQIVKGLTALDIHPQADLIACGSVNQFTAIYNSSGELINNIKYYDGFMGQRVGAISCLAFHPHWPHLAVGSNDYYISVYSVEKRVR
Chain of mTORC1 (Homo sapiens) (Q9BVC4 whole entry, looked up, other chains not shown, canonical isoform): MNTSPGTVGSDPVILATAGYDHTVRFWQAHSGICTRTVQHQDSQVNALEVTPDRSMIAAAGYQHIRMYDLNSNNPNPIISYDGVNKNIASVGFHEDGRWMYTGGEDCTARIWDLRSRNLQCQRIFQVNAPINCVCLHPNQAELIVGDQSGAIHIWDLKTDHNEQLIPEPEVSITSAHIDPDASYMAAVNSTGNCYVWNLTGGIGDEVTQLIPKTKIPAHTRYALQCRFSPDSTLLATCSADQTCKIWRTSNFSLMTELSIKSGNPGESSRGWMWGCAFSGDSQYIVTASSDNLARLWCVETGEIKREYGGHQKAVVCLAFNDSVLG
Chain of EIF4E/EIF4G1 (P06730 whole entry): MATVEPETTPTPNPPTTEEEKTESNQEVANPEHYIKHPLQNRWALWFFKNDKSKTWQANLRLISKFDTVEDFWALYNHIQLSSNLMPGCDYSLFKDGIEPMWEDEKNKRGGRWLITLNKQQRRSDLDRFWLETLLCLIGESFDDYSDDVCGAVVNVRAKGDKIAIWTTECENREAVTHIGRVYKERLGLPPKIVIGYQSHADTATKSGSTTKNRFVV
Chain of EIF4E/EIF4G1 (Q04637 whole entry): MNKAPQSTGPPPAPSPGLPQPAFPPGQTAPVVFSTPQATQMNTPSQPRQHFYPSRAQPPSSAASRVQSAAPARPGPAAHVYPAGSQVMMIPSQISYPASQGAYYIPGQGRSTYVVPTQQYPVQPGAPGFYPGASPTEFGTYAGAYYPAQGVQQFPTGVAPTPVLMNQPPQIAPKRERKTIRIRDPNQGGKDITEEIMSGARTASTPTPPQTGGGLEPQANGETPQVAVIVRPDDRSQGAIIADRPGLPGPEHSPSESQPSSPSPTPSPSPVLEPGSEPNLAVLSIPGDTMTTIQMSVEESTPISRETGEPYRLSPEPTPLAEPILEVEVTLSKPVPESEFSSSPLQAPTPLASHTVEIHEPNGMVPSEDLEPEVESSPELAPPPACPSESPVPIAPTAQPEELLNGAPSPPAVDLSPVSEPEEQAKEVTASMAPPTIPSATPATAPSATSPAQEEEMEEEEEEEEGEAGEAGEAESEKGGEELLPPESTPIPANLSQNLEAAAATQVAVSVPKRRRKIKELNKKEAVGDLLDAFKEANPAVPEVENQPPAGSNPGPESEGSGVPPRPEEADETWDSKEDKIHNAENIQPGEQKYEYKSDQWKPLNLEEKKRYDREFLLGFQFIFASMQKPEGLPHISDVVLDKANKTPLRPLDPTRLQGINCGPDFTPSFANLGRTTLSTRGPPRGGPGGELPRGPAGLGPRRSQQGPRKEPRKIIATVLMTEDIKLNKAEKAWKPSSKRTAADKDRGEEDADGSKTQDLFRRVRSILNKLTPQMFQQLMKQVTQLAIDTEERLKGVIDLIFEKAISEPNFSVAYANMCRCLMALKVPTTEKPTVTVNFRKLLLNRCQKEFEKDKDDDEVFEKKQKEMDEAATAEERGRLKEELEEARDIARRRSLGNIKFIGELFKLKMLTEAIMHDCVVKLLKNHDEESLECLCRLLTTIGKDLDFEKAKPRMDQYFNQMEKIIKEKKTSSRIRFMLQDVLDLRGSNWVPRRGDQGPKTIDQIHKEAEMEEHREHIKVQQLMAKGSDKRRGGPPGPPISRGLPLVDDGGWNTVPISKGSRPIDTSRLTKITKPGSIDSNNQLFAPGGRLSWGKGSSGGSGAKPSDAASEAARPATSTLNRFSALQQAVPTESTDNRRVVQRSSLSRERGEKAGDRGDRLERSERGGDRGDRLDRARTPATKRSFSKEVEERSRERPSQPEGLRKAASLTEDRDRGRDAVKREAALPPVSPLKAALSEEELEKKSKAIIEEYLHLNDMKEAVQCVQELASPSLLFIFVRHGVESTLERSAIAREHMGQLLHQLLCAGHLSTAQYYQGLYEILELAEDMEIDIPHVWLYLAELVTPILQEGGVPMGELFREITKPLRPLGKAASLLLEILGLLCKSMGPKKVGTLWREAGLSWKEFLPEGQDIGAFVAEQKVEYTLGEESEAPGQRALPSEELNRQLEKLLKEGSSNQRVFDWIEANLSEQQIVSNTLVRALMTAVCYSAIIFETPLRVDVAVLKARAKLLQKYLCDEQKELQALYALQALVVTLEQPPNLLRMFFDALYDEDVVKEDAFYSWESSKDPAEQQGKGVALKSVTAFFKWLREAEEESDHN
Chain of MAP kinase-interacting serine/threonine-protein kinase 2 (Q9HBH9 whole entry): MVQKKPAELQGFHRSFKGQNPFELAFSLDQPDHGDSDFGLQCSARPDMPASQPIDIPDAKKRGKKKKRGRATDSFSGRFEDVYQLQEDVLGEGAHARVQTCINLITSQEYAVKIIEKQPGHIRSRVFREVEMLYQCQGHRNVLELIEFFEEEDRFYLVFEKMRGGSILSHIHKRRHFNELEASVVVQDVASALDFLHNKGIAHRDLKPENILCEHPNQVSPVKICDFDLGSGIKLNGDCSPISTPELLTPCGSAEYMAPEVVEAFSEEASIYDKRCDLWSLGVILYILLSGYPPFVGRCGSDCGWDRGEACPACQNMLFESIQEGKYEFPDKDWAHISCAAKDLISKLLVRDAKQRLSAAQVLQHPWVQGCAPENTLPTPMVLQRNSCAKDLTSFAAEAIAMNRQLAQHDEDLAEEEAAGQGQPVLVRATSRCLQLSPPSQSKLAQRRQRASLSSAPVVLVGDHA

`O=C(O)c1cc(-c2ccc(/C=C3\SC(=S)N(Cc4ccccc4)C3=O)o2)ccc1Cl` showed an IC50 (EIF4E/EIF4G1) of 13500 nM.

Molecule `C=C1C[C@@H](O)[C@@H](Br)C(C)(C)[C@]12CCC(C)=C(Cl)C2` has an IC50 [1] of 16400 nM, an IC50 (Leukemia cell) of 1700 nM and an IC50 (Lymphoma cell line) of 1600 nM.

`COC(=O)[C@H]1[C@@H](O)[C@@]2(O)c3c(OC)cc(O[C@@H]4O[C@@H]([C@H](O)CO)CO[C@H]4OC)cc3O[C@@]2(c2ccc(OC)cc2)[C@@H]1c1ccccc1` [SILVESTROL] showed a bioavailability (in vivo) of 1%.

In the case of `O=C(O)/C(Cc1ccccc1[N+](=O)[O-])=N/Nc1nc(-c2ccc(Cl)c(Cl)c2)cs1`, the IC50 (A549) is reported as 6000 nM.

With `C[C@H](CN)Oc1ccc2ncc(-c3cc4ccccc4o3)n2n1` the IC50 [2] was 904 nM.

Work on `CC1=C(/C=C/C(C)=C/C=C/C(C)=C/C(=O)Nc2ccc(F)cc2)C(C)(C)CCC1n1ccnc1` (stereo not given) yielded an inhibition in vivo at 10 mg/kg (MDA-MB-231 [3]) of 97%, an inhibition in vivo at 20 mg/kg (MDA-MB-231 [4]) of 97% and an inhibition in vivo at 5 mg/kg (MDA-MB-231 [5]) of 91%. The inhibition in vivo at 10 mg/kg (CWR22R [6]) was 63.4%, the inhibition in vivo at 20 mg/kg (CWR22R [7]) was 76.3% and the inhibition in vivo at 10 mg/kg (animal or person) was 73.3%.

Work on `Oc1cccc(-c2nc(N3CCOCC3)c3oc4ncccc4c3n2)c1` yielded an inhibition (mTORC1 (Homo sapiens)) of 83.9%.

In the case of `COc1ncc(-c2ccc3nccc(-c4ccnnc4)c3c2)cc1NS(=O)(=O)c1ccc(F)cc1F` [OMIPALISIB], the IC50 [8] is reported as 0.024 nM.
